For the assay, the target named is T1, Gag-Pol polyprotein [588-1027]/[588-1147] (Human immunodeficiency virus 1, UniProt P04585).
T1 construct: 588-1027; 588-1147
Kind of assay: HIV-1 RT Assay. The note with it: pH 7.8; 37 °C. From the text:
The IC50 of reverse transcriptase is the concentration that inhibits 50% of recombinant HIV-1 RT RNA-directed DNA polymerase activity in vitro.

A value given as a limit tells only on which side of the number the result lay.

One may read the IC50 as the concentration at which inhibition is half-maximal. Read a high IC50 as weaker potency. Molecule `COc1ccccc1CCN=C(NC#N)Nc1nccs1` [2-cyano-3-[2-(2-methoxyphenyl)ethyl]-1-1,3-thiazol-2-ylguanidine] showed an IC50 of over 10 µM.

With `O=C(CCNC(=S)Nc1ccc(Br)cn1)c1ccccc1` [3-(5-bromopyridin-2-yl)-1-(3-oxo-3-phenylpropyl)thiourea], the concentration for half-maximal inhibition (IC50) was under 0.027 µM.

As for `O=C(CC/N=C(\S)Nc1ccc(Br)cn1)c1cc(F)ccc1F` [3-(5-bromopyridin-2-yl)-1-[3-(2,5-difluorophenyl)-3-oxopropyl]thiourea], the IC50 is under 0.025 µM.

`N#CN/C(=N\c1ccc(Cl)cn1)NCCc1ccccc1` [5-chloro-2-cyano-1-(2-phenylethyl)pyridine-2-guanidine] returned an IC50 of over 10 µM.

`O=S(=O)(NCCc1ccccc1)Nc1ccc(Cl)cn1` [[(5-chloropyridin-2-yl)sulfamoyl](2-phenylethyl)amine] displayed an IC50 of over 10 µM.
